Experimental data reported in US20220395553A1, “CXCR4 ANTAGONIST PEPTIDES” (COHBAR, INC., priority 2019, published 2022).
Square brackets hold non-standard residues; d marks the D form. Peptide text beside a SMILES is read from it.

What was measured:
[1] = molecular target: T1, human CXCR4 (Homo sapiens, UniProt P61073); experiment: IC50 for inhibition of CXCR4 activation, β-Arrestin recruitment (Example 22); type: cell-based; set-up: host or cells: C2C12 (mouse myoblast) CXCR4 β-Arrestin PathHunter cell line
T1 sequence (P61073 whole entry, the tested form may be a part): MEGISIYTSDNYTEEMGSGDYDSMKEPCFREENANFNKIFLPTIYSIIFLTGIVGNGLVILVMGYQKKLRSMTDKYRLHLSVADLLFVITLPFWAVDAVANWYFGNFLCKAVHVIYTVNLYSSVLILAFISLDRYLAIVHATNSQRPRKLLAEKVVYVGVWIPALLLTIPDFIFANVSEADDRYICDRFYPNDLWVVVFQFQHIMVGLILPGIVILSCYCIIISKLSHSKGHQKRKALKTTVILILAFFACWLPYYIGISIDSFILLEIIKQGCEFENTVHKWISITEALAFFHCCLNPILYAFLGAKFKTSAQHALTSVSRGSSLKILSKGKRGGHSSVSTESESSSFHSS
Procedure, shortened: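 C2C12 cells co-expressing ProLink-tagged human CXCR4 and Enzyme Acceptor-tagged β-arrestin (PathHunter). Peptides tested in 10-point, 3-fold dilutions from 1 μM (1 μM–0.05 nM). Recruitment read by chemiluminescent enzyme-fragment complementation after 90 min incubation.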

[2] = tested on: A172 human brain glioblastoma cell line; experiment: Caspase 3/7 activity (Caspase-Glo 3/7) in cultured cells; type: cell-based; conditions: peptide 10 μM, 18-20 hours, relative to 0.1% DMSO control
Protocol: The effect of the peptides on cell death/survival can be assessed using a caspase-3/7 assay in cultured cells. Peptides were dissolved at 10 mM in DMSO as stock solutions for use at a final concentration of 10 μM. […] Caspase-Glo 3/7 Assay Reagent was purchased from Promega (Madison, Wis.). A172 human brain glioblastoma cell line was purchased from American Type Culture Collection (Manassas, Va.). A172 cells were grown in DMEM supplemented with 10% FBS with 100 IU/ml penicillin and 100 μg/ml streptomycin. Cultures were maintained at 37° C. in a humidified atmosphere of 5% CO2/95% air. A172 cells were seeded at 8,000 cells per well on 96-well plates. […] Caspase 3/7 activity was determined using a Caspase-Glo 3/7 Assay kit (Promega) according to the manufacturer's instructions. Luminescence for each sample well on the plate was measured using a Cytation 3 plate reader (BioTek, Winooski, Vt.). Activity was calculated relative to 0.1% DMSO control.

[3] = tested on: Jurkat cells; experiment: CXCL12 mediated cell migration, Jurkat cells; type: cell-based, human; conditions: 1.1 μM test article, 100 ng/ml CXCL12, 1 hour
Procedure, shortened: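 Jurkat cells in serum-free RPMI with 0.5% BSA, 250,000 per upper chamber of a 5 μm Transwell, with peptides at 1.1 μM final. Migration toward CXCL12 ran 1 h at 37 °C in 5% CO2. Cells reaching the lower chamber quantified by ATP luminescence (CellTiter-Glo 2.0).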

[4] = tested on: Rat H-4-II-E Cells; experiment: Cell proliferation, BrdU incorporation; type: cell-based; conditions: peptide 10 μM, 18-20 hours, relative to 0.1% DMSO control
Protocol: The effect of the peptides on cell proliferation can be assessed using an assay of BrdU incorporation in cultured cells. Peptides were initially prepared as 10 mM stock in DMSO and tested at a final concentration of 10 μM (0.1% DMSO). BrdU Cell Proliferation Assay kit was purchased from Cell Signaling Technology. H-4-II-E rat liver hepatoma cell line was purchased from American Type Culture Collection (Manassas, Va.). H-4-II-E cells were grown in DMEM supplemented with 10% FBS with 100 IU/ml penicillin and 100 μg/ml streptomycin. Cultures were maintained at 37° C. in a humidified atmosphere of 5% CO2/95% air. H-4-II-E cells were seeded at 20,000 cells per well on 96-well plates. The next day cells were incubated with test peptides at 10 μM in 0.1% DMSO and maintained at 37° C. in a humidified atmosphere of 5% CO2/95% air for 18-20 hours. Cell proliferation was determined using a BrdU Cell Proliferation Assay kit (Cell Signaling Technology) according to the manufacturer's instructions. Absorption for each sample well on the plate was measured using a Cytation 3 plate reader at 450 nm (BioTek, Winooski, Vt.). Activity was calculated relative to 0.1% DMSO untreated control.

[5] = tested on: SH-SY5Y Neuroblastoma Cells; experiment: ATP levels in cells exposed to staurosporine; type: cell-based, human; conditions: peptide 10 μM plus staurosporine, 18-20 hours; <100% cytoprotective, >100% synergistic
Protocol: Peptides were initially prepared as 10 mM stock in DMSO and tested at a final concentration of 10 μM (0.1% DMSO).
[…] CellTiter-Glo® Assay kit was purchased from Promega. SH-SY5Y human neuroblastoma cell line was purchased from American Type Culture Collection (Manassas, Va.) and licensed from Memorial Sloan-Kettering Cancer Center (New York, N.Y.). SH-SY5Y cells were grown in DMEM/F12 medium supplemented with 10% FBS with 100 IU/ml penicillin and 100 μg/ml streptomycin. Cultures were maintained at 37° C. in a humidified atmosphere of 5% CO2/95% air. SH-SY5Y cells were seeded at 30,000 cells per well on 96-well plates. […] ATP levels were determined using a CellTiter-Glo Assay kit (Promega) according to the manufacturer's instructions. Luminescence for each sample well on the plate was measured using a Cytation 3 plate reader (BioTek, Winooski, Vt.). […] A value less than 100% is indicative of a cytoprotective effect, while a value greater than 100% is indicative of a synergistic effect on viability.

[6] = molecular target: T1, human CXCR4; experiment: IC50 for CXCR4/CXCL12 ligand binding, HTRF format (Example 24); set-up: host or cells: HEK293 (Tag-lite CXCR4 cells, frozen aliquots, transient expression)
Protocol: Peptides were initially prepared as 1 mM stock in H2O. […] Following the manufacture's protocol, a frozen aliquot of Tag-lite CXCR4 cells was thawed and immediately seeded onto 384-well plates in TLB. […] The plates were covered in aluminum foil and left at room temperature for 3 hours. Following the 3 hour incubation period, the plates were removed from the incubator and fluorescence measured using a Cytation 1 plate reader using a HTRF filter cube ([…]; BioTek; Winooski, Vt.).

| IC50 [1] | IC50 [6] | SMILES | Caspase 3/7 Activity, Percent of Control Activity [2] | Percent Inhibition of CXCL12 Mediated Migration (1.1 μM Test Article) [3] | BrdU Incorporation, Percent of Control [4] | Percent of ATP Reduction Induced by Control [5] |
| --- | --- | --- | --- | --- | --- | --- |
| 11 nM | – | CSCC[C@H](N)C(=O)N[C@@H](CC(C)C)C(=O)N[C@@H](CCCNC(=N)N)C(=O)N[C@@H](CCCNC(=N)N)C(=O)N[C@@H](Cc1ccc(O)cc1)C(=O)N[C@@H](Cc1c[nH]cn1)C(=O)N[C@@H](Cc1c[nH]cn1)C(=O)N[C@@H](CO)C(=O)N[C@H](C(=O)N[C@@H](CCCNC(=N)N)C(=O)N[C@@H](CO)C(=O)N[C@@H](CO)C(=O)N[C@@H](CC(C)C)C(=O)N[C@@H](CCCNC(=N)N)C(=O)N1CCC[C@H]1C(=O)N[C@@H](Cc1ccc(O)cc1)C(=O)N[C@H](C(=O)N[C@@H](CCCCN)C(=O)O)[C@@H](C)O)C(C)C [compound 2] (H-MLRRYHHSVRSSLRPYTK-OH; N-terminus and C-terminus assumed) | 96.7% | 4% | 123.6% | 84.5% |
| 5 nM | – | CC(C)C[C@H](NC(=O)[C@H](CO)NC(=O)[C@H](CO)NC(=O)[C@H](CCCNC(=N)N)NC(=O)[C@@H](NC(=O)[C@H](CO)NC(=O)[C@H](Cc1c[nH]cn1)NC(=O)[C@H](Cc1c[nH]cn1)NC(=O)[C@H](Cc1ccc(O)cc1)NC(=O)[C@H](CCCNC(=N)N)NC(=O)[C@H](CCCNC(=N)N)NC(=O)[C@@H](N)CC(C)C)C(C)C)C(=O)N[C@@H](CCCNC(=N)N)C(=O)N1CCC[C@H]1C(=O)N[C@@H](Cc1ccc(O)cc1)C(=O)N[C@H](C(=O)N[C@@H](CCCCN)C(=O)O)[C@@H](C)O [compound 3] (H-LRRYHHSVRSSLRPYTK-OH; N-terminus and C-terminus assumed) | 121.4% | 66% | 130.3% | 84.9% |
| 4 nM | 6 nM | CC(C)C[C@H](NC(=O)[C@H](CO)NC(=O)[C@H](CO)NC(=O)[C@H](CCCNC(=N)N)NC(=O)[C@@H](NC(=O)[C@H](CO)NC(=O)[C@H](Cc1c[nH]cn1)NC(=O)[C@H](Cc1c[nH]cn1)NC(=O)[C@H](Cc1ccc(O)cc1)NC(=O)[C@H](CCCNC(=N)N)NC(=O)[C@H](CCC(=O)O)NC(=O)[C@@H](N)CC(C)C)C(C)C)C(=O)N[C@@H](CCCNC(=N)N)C(=O)N1CCC[C@H]1C(=O)N[C@@H](Cc1ccc(O)cc1)C(=O)N[C@H](C(=O)N[C@@H](CCCCN)C(=O)O)[C@@H](C)O [compound 4] (H-LERYHHSVRSSLRPYTK-OH; N-terminus and C-terminus assumed) | 107.7% | 77% | 114.4% | 77.1% |
| – | 33 nM | CC(C)C[C@H](NC(=O)[C@H](CO)NC(=O)[C@H](CO)NC(=O)[C@H](CCCNC(=N)N)NC(=O)[C@@H](C)NC(=O)[C@H](CO)NC(=O)[C@H](Cc1c[nH]cn1)NC(=O)[C@H](Cc1c[nH]cn1)NC(=O)[C@H](Cc1ccc(O)cc1)NC(=O)[C@H](CCCNC(=N)N)NC(=O)[C@H](CCC(=O)O)NC(=O)[C@@H](N)CC(C)C)C(=O)N[C@@H](CCCNC(=N)N)C(=O)N1CCC[C@H]1C(=O)N[C@@H](Cc1ccc(O)cc1)C(=O)N[C@H](C(=O)O)[C@@H](C)O [compound 5] (H-LERYHHS[dA]RSSLRPYT-OH; N-terminus and C-terminus assumed) | 104.7% | 46% | 131.1% | 80.0% |
